Experimental data published in the supplement of paper PMC13380429.

What was measured:
[1] = test system: A549-ACE2 infected with SARS-CoV-2; test: cell count relative to DMSO; higher = less toxic; details: 24 h
Caco-2 [2] = test: cell viability relative to DMSO; higher = less toxic; details: 72 h
Calu-3 [3] = test: as above; details: 72 h
HepG2 [4] = test: as above; details: 72 h
U2OS [5] = test: as above; details: 72 h
Vero E6 [6] = test: as above; details: 72 h
[7] = test system: A549-ACE2 infected with SARS-CoV-2; test: SARS-CoV-2 infection rate relative to DMSO; higher = more infection; details: 24 h
A549-ACE2 [8] = test: phospholipidosis EC50; higher = less potent phospholipidosis inducer
A549-ACE2 [9] = test: drug-induced phospholipidosis relative to tamoxifen; higher = more phospholipidosis
[10] = test system: A549-ACE2 infected with SARS-CoV-2; test: morphology score (similarity to uninfected cells); higher = more like uninfected cells; details: 24 h
Calu-3 [11] = test: relative viability EC50 (midpoint between 100% and the lowest measured viability); higher = less toxic; details: 72 h
HepG2 [12] = test: as above; details: 72 h
U2OS [13] = test: as above; details: 72 h
Vero E6 [14] = test: as above; details: 72 h
Caco-2 [15] = test: drug sensitivity score (DSS) for viability; higher = more toxic; extreme values may be limits of the assay; details: 72 h
Calu-3 [16] = test: as above; details: 72 h
HepG2 [17] = test: as above; details: 72 h
U2OS [18] = test: as above; details: 72 h
Vero E6 [19] = test: as above; details: 72 h

SMILES: COc1ccc(NC(=O)c2ccc(-c3ccc(-c4noc(C)n4)cc3C)cc2)cc1OCCN(C)C
- cell count ([1]; 0.1 µM): 102%
- cell count ([1]; 0.3 µM): 99%
- cell count ([1]; 1 µM): 109%
- cell count ([1]; 3 µM): 126%
- cell viability (Caco-2 [2]; 1 nM): 101%
- cell viability (Caco-2 [2]; 10 nM): 102%
- cell viability (Caco-2 [2]; 100 nM): 104%
- cell viability (Caco-2 [2]; 1000 nM): 92.4%
- cell viability (Caco-2 [2]; 10000 nM): 54%
- cell viability (Calu-3 [3]; 1 nM): 101%
- cell viability (Calu-3 [3]; 10 nM): 102%
- cell viability (Calu-3 [3]; 100 nM): 105%
- cell viability (Calu-3 [3]; 1000 nM): 92.5%
- cell viability (Calu-3 [3]; 10000 nM): 11.2%
- cell viability (HepG2 [4]; 1 nM): 121%
- cell viability (HepG2 [4]; 10 nM): 95.5%
- cell viability (HepG2 [4]; 100 nM): 109%
- cell viability (HepG2 [4]; 1000 nM): 90.1%
- cell viability (HepG2 [4]; 10000 nM): 6.6%
- cell viability (U2OS [5]; 1 nM): 101%
- cell viability (U2OS [5]; 10 nM): 105%
- cell viability (U2OS [5]; 100 nM): 101%
- cell viability (U2OS [5]; 1000 nM): 102%
- cell viability (U2OS [5]; 10000 nM): 44.7%
- cell viability (Vero E6 [6]; 1 nM): 98.1%
- cell viability (Vero E6 [6]; 10 nM): 98%
- cell viability (Vero E6 [6]; 100 nM): 96.7%
- cell viability (Vero E6 [6]; 1000 nM): 93.1%
- cell viability (Vero E6 [6]; 10000 nM): 20.1%
- SARS-CoV-2 infection rate ([7]; 0.1 µM): 97%
- SARS-CoV-2 infection rate ([7]; 0.3 µM): 95%
- SARS-CoV-2 infection rate ([7]; 1 µM): 82%
- SARS-CoV-2 infection rate ([7]; 3 µM): 26%
- phospholipidosis EC50 (A549-ACE2 [8]; 24 h): 1000 nM
- phospholipidosis EC50 (A549-ACE2 [8]; 48 h): 2130 nM
- phospholipidosis EC50 (A549-ACE2 [8]; 72 h): 3020 nM
- drug-induced phospholipidosis (A549-ACE2 [9]; 0.3 µM, 24 h): 2.56%
- drug-induced phospholipidosis (A549-ACE2 [9]; 0.3 µM, 48 h): 4.9%
- drug-induced phospholipidosis (A549-ACE2 [9]; 0.3 µM, 72 h): 5.85%
- drug-induced phospholipidosis (A549-ACE2 [9]; 0.833333 µM, 24 h): 13.6%
- drug-induced phospholipidosis (A549-ACE2 [9]; 0.833333 µM, 48 h): 6.68%
- drug-induced phospholipidosis (A549-ACE2 [9]; 0.833333 µM, 72 h): 5.56%
- drug-induced phospholipidosis (A549-ACE2 [9]; 3.33333 µM, 24 h): 76.9%
- drug-induced phospholipidosis (A549-ACE2 [9]; 3.33333 µM, 48 h): 68%
- drug-induced phospholipidosis (A549-ACE2 [9]; 3.33333 µM, 72 h): 57.7%
- drug-induced phospholipidosis (A549-ACE2 [9]; 6.66667 µM, 24 h): 75.2%
- drug-induced phospholipidosis (A549-ACE2 [9]; 6.66667 µM, 48 h): 79.2%
- drug-induced phospholipidosis (A549-ACE2 [9]; 6.66667 µM, 72 h): 86.2%
- drug-induced phospholipidosis (A549-ACE2 [9]; 10 µM, 24 h): 56%
- morphology score ([10]; 0.1 µM): -0.01
- morphology score ([10]; 0.3 µM): 0.09
- morphology score ([10]; 1 µM): 0.43
- morphology score ([10]; 3 µM): 0.77
- relative viability EC50 (Calu-3 [11]): 2470 nM
- relative viability EC50 (HepG2 [12]): 2290 nM
- relative viability EC50 (U2OS [13]): 3330 nM
- relative viability EC50 (Vero E6 [14]): 2450 nM
- drug sensitivity score (Caco-2 [15]): 3.7
- drug sensitivity score (Calu-3 [16]): 6.1
- drug sensitivity score (HepG2 [17]): 6.8
- drug sensitivity score (U2OS [18]): 2.8
- drug sensitivity score (Vero E6 [19]): 5.5

SMILES: CCN(CC)CCO[C@H]1CC[C@@]2(C)C(=CC[C@@H]3[C@@H]2CC[C@]2(C)C(=O)CC[C@@H]32)C1
- cell count ([1]; 0.1 µM): 96%
- cell count ([1]; 0.3 µM): 105%
- cell count ([1]; 1 µM): 114%
- cell count ([1]; 3 µM): 117%
- cell viability (Caco-2 [2]; 1 nM): 92%
- cell viability (Caco-2 [2]; 10 nM): 92.6%
- cell viability (Caco-2 [2]; 100 nM): 97.2%
- cell viability (Caco-2 [2]; 1000 nM): 88.4%
- cell viability (Caco-2 [2]; 10000 nM): 51.2%
- cell viability (Calu-3 [3]; 1 nM): 98%
- cell viability (Calu-3 [3]; 10 nM): 103%
- cell viability (Calu-3 [3]; 100 nM): 107%
- cell viability (Calu-3 [3]; 1000 nM): 79.4%
- cell viability (Calu-3 [3]; 10000 nM): 18.5%
- cell viability (HepG2 [4]; 1 nM): 101%
- cell viability (HepG2 [4]; 10 nM): 93.8%
- cell viability (HepG2 [4]; 100 nM): 85.3%
- cell viability (HepG2 [4]; 1000 nM): 84.5%
- cell viability (HepG2 [4]; 10000 nM): 33.5%
- cell viability (U2OS [5]; 1 nM): 99.4%
- cell viability (U2OS [5]; 10 nM): 98.4%
- cell viability (U2OS [5]; 100 nM): 99.7%
- cell viability (U2OS [5]; 1000 nM): 84.9%
- cell viability (U2OS [5]; 10000 nM): 78.6%
- cell viability (Vero E6 [6]; 1 nM): 93.9%
- cell viability (Vero E6 [6]; 10 nM): 104%
- cell viability (Vero E6 [6]; 100 nM): 89.3%
- cell viability (Vero E6 [6]; 1000 nM): 92.3%
- cell viability (Vero E6 [6]; 10000 nM): 24.6%
- SARS-CoV-2 infection rate ([7]; 0.1 µM): 108%
- SARS-CoV-2 infection rate ([7]; 0.3 µM): 93%
- SARS-CoV-2 infection rate ([7]; 1 µM): 81%
- SARS-CoV-2 infection rate ([7]; 3 µM): 29%
- phospholipidosis EC50 (A549-ACE2 [8]; 24 h): 935 nM
- phospholipidosis EC50 (A549-ACE2 [8]; 48 h): 1040 nM
- phospholipidosis EC50 (A549-ACE2 [8]; 72 h): 2250 nM
- drug-induced phospholipidosis (A549-ACE2 [9]; 0.3 µM, 24 h): 6.72%
- drug-induced phospholipidosis (A549-ACE2 [9]; 0.3 µM, 48 h): 7.14%
- drug-induced phospholipidosis (A549-ACE2 [9]; 0.3 µM, 72 h): 6.02%
- drug-induced phospholipidosis (A549-ACE2 [9]; 0.833333 µM, 24 h): 34.6%
- drug-induced phospholipidosis (A549-ACE2 [9]; 0.833333 µM, 48 h): 19.8%
- drug-induced phospholipidosis (A549-ACE2 [9]; 0.833333 µM, 72 h): 13.4%
- drug-induced phospholipidosis (A549-ACE2 [9]; 3.33333 µM, 24 h): 112%
- drug-induced phospholipidosis (A549-ACE2 [9]; 3.33333 µM, 48 h): 111%
- drug-induced phospholipidosis (A549-ACE2 [9]; 3.33333 µM, 72 h): 95.4%
- drug-induced phospholipidosis (A549-ACE2 [9]; 6.66667 µM, 24 h): 114%
- drug-induced phospholipidosis (A549-ACE2 [9]; 6.66667 µM, 48 h): 116%
- drug-induced phospholipidosis (A549-ACE2 [9]; 6.66667 µM, 72 h): 125%
- drug-induced phospholipidosis (A549-ACE2 [9]; 10 µM, 24 h): 104%
- drug-induced phospholipidosis (A549-ACE2 [9]; 10 µM, 48 h): 106%
- drug-induced phospholipidosis (A549-ACE2 [9]; 10 µM, 72 h): 115%
- drug-induced phospholipidosis (A549-ACE2 [9]; 30 µM, 24 h): 86.8%
- drug-induced phospholipidosis (A549-ACE2 [9]; 30 µM, 48 h): 90%
- morphology score ([10]; 0.1 µM): -0.31
- morphology score ([10]; 0.3 µM): 0.19
- morphology score ([10]; 1 µM): 0.41
- morphology score ([10]; 3 µM): 0.69
- relative viability EC50 (Calu-3 [11]): 1540 nM
- relative viability EC50 (HepG2 [12]): 1720 nM
- relative viability EC50 (U2OS [13]): > 10000 nM
- relative viability EC50 (Vero E6 [14]): 2320 nM
- drug sensitivity score (Caco-2 [15]): 4.4
- drug sensitivity score (Calu-3 [16]): 7.7
- drug sensitivity score (HepG2 [17]): 5.8
- drug sensitivity score (U2OS [18]): 2.2
- drug sensitivity score (Vero E6 [19]): 5.4
